Results published in US5321030A, “Creatine analogs having antiviral activity” (priority 1991, dated 1994).
In brackets after ≈: the same amount, converted by molar mass.

Columns and labels:
[1] = system: HSV-1; assay: Plaque assay, plaquing efficiency of HSV-1 in serum-starved Vero cells; assay type: cell-based, Herpes Simplex Type I (HSV-1)
Description: Plaque assays were performed on confluent, serum-starved monolayers of Vero cells in 100 mm dishes (Corning). Growth medium was removed by aspiration and 10 ml of low serum media was added. Monolayers were grown in this medium for 5 days. […] After incubation, the inoculum was removed by aspiration and replaced with 2 ml of agarose-medium maintained at 42° C. The agarose-medium overlay contained a fresh 1:1 mixture of: […] A plaque assay was used to confirm the antiviral activity of cyclocreatine detected in the cytopathogenicity studies described above. Vero cells were grown in 100 mm dishes and were serum-starved. Each dish, with the exception of uninfected controls, was inoculated with HSV-1 virus and incubated with various concentrations of cyclocreatine until plaques appeared in the plates exposed to virus alone.

[2] = system: herpes simplex virus type 2 (HSV-2), strain E194; assay: HSV-2 vaginitis in mice; assay type: in vivo, Swiss Webster female mice
[3] = system: Parainfluenza Type 3 (PIV-3), strain C243; assay: CPE-reduction assay, parainfluenza type 3 in HEp-2 cells; assay type: cell-based
[4] = system: HCMV, strain C8805-37 (DHPG resistant); assay: microbe, parasite or virus in culture; assay type: cell-based, Human Cytomegalovirus; parameters: TI50 (CD50 ÷ ED50): unit not given beside the values; conditions: for # Plaques: virus control 11.5 ± 2.1

NC1=NCCN1CC(=O)O [cyclocreatine, 1-carboxymethyl-2-iminoimidazolidine]
effect on plaquing efficiency ([1]; FIG. 9): reduced the plaquing efficiency
number of plaques ([1]; second experiment, 4 mg/ml (755 at 0 mg/ml)): 120
antiviral effect in vaginitis model ([2]; 1% dietary): comparable to that achieved by acyclovir at 200 mg/kg, 100 mg/kg or 50 mg/kg
average lesion score ([2]; 1% in chow, Grand Ave. (Days 3-14)): 0.8 ± 0.2
average lesion score ([2]; 1% in chow, day 3): 0.2 ± 0.2
average lesion score ([2]; 1% in chow, day 4): 0.5 ± 0.7
average lesion score ([2]; 1% in chow, day 5): 0.9 ± 1.3
average lesion score ([2]; 1% in chow, day 6): 0.9 ± 1.3
average lesion score ([2]; 1% in chow, day 7): 0.8 ± 1.4
average lesion score ([2]; 1% in chow, day 8): 0.8 ± 1.4
average lesion score ([2]; 1% in chow, day 9): 1.0 ± 1.3
average lesion score ([2]; 1% in chow, day 10): 1.1 ± 1.3
average lesion score ([2]; 1% in chow, day 11): 1.0 ± 1.3
average lesion score ([2]; 1% in chow, day 12): 0.9 ± 1.3
average lesion score ([2]; 1% in chow, day 13): 0.9 ± 1.4
average lesion score ([2]; 1% in chow, day 14): 0.7 ± 1.4
activity in vaginitis model ([2]; 5% and […] cream topical): inactive
average lesion score ([2]; 5% cream topical, Grand Ave. (Days 3-14)): 2.3 ± 1.1
average lesion score ([2]; 5% cream topical, day 3): 0.3 ± 0.3
average lesion score ([2]; 5% cream topical, day 4): 0.4 ± 0.4
average lesion score ([2]; 5% cream topical, day 5): 1.5 ± 1.1
average lesion score ([2]; 5% cream topical, day 6): 2.1 ± 1.6
average lesion score ([2]; 5% cream topical, day 7): 2.0 ± 1.3
average lesion score ([2]; 5% cream topical, day 8): 2.8 ± 1.8
average lesion score ([2]; 5% cream topical, day 9): 3.2 ± 1.6
average lesion score ([2]; 5% cream topical, day 10): 3.2 ± 1.5
average lesion score ([2]; 5% cream topical, day 11): 3.1 ± 1.5
average lesion score ([2]; 5% cream topical, day 12): 3.0 ± 1.5
average lesion score ([2]; 5% cream topical, day 13): 3.0 ± 1.5
average lesion score ([2]; 5% cream topical, day 14): 3.0 ± 1.5
survival ([2]; 10% cream topical (16% in the placebo group)): 40%
effect on average lesion score ([2]; 10% cream topical, FIG. 10): slightly reduces the average lesion score
average lesion score ([2]; 10% cream topical, Grand Ave. (Days 3-14)): 1.6 ± 0.8
average lesion score ([2]; 10% cream topical, day 3): 0.2 ± 0.2
average lesion score ([2]; 10% cream topical, day 4): 0.1 ± 0.2
average lesion score ([2]; 10% cream topical, day 5): 0.9 ± 1.2
average lesion score ([2]; 10% cream topical, day 6): 1.4 ± 1.9
average lesion score ([2]; 10% cream topical, day 7): 1.6 ± 1.9
average lesion score ([2]; 10% cream topical, day 8): 2.0 ± 2.0
average lesion score ([2]; 10% cream topical, day 9): 2.2 ± 1.9
average lesion score ([2]; 10% cream topical, day 10): 2.2 ± 1.9
average lesion score ([2]; 10% cream topical, day 11): 2.1 ± 1.9
average lesion score ([2]; 10% cream topical, day 12): 2.0 ± 1.9
average lesion score ([2]; 10% cream topical, day 13): 2.0 ± 1.9
average lesion score ([2]; 10% cream topical, day 14): 2.0 ± 1.9
average lesion score ([2]; […] cream topical, Grand Ave. (Days 3-14)): 2.0 ± 0.9
average lesion score ([2]; […] cream topical, day 3): 0.2 ± 0.2
average lesion score ([2]; […] cream topical, day 4): 0.4 ± 0.6
average lesion score ([2]; […] cream topical, day 5): 1.2 ± 1.3
average lesion score ([2]; […] cream topical, day 6): 1.8 ± 1.8
average lesion score ([2]; […] cream topical, day 7): 2.2 ± 1.8
average lesion score ([2]; […] cream topical, day 8): 2.7 ± 1.7
average lesion score ([2]; […] cream topical, day 9): 2.4 ± 1.9
average lesion score ([2]; […] cream topical, day 10): 2.6 ± 1.7
average lesion score ([2]; […] cream topical, day 11): 2.6 ± 1.7
average lesion score ([2]; […] cream topical, day 12): 2.6 ± 1.7
average lesion score ([2]; […] cream topical, day 13): 2.6 ± 1.7
average lesion score ([2]; […] cream topical, day 14): 2.6 ± 1.7
activity in vaginitis model, second experiment ([2]; cream topical): weak, but not statistically significant, activity
Mean Day to Death ([2]; virus infected, AM-285 1% dietary): 6.0 ± 0.0
Average CPE ([3]; 5 mg/ml): 2.8
Average CPE ([3]; 10 mg/ml): 0.5
# Plaques ([4]; AM-285 156.25 μg/ml): 9.5
# Plaques ([4]; AM-285 312.5 μg/ml): 12
# Plaques ([4]; AM-285 625 μg/ml): 10.5
# Plaques ([4]; AM-285 1250 μg/ml): 9.5
# Plaques ([4]; AM-285 2500 μg/ml): 6.5
# Plaques ([4]; AM-285 5000 μg/ml): 1.5
# Plaques ([4]; AM-285 10000 μg/ml): 0
inhibition at 156.25 µg/mL ([4]; Human betaherpesvirus 5, MRC5, AM-285 156.25 μg/ml, read-out: % Reduction): 0%
inhibition at 312.5 µg/mL ([4]; Human betaherpesvirus 5, MRC5, AM-285 312.5 μg/ml, read-out: % Reduction): 0%
inhibition at 625 µg/mL ([4]; Human betaherpesvirus 5, MRC5, AM-285 625 μg/ml, read-out: % Reduction): 0%
inhibition at 1250 µg/mL ([4]; Human betaherpesvirus 5, MRC5, AM-285 1250 μg/ml, read-out: % Reduction): 0%
inhibition at 2500 µg/mL ([4]; Human betaherpesvirus 5, MRC5, AM-285 2500 μg/ml, read-out: % Reduction): 43%
inhibition at 5000 µg/mL ([4]; Human betaherpesvirus 5, MRC5, AM-285 5000 μg/ml, read-out: % Reduction): 87%
inhibition at 10000 µg/mL ([4]; Human betaherpesvirus 5, MRC5, AM-285 10000 μg/ml, read-out: % Reduction): 100%
EC50 ([4]; Human betaherpesvirus 5, MRC5, MRC-5 cells, Table 7, read-out: ED50 (the source's name)): 2780 µg/mL (≈ 19.4 mM)
TI50 (CD50 ÷ ED50) ([4]; MRC-5 cells, Table 7): > 3.6
